Results published in patent publication US8501713B2, “Drug combinations for the treatment of duchenne muscular dystrophy” (Summit Corporation PLC, priority 2007, dated 2013).

tested on: Utrophin A promoter linked to a luciferase reporter gene; assay: Luciferase reporter assay (murine H2K cells); format: cell-based; details: Mus musculus, H2K mdx, luciferase level relative to control; H2K/mdx/Utro A reporter cells; compound 10 μM final concentration; read-out: Activity
Method in brief: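 Immortalized mdx mouse H2K myoblasts stably carrying a ~5 kb utrophin A promoter–luciferase construct, kept at 33° C, 10% CO2. After 24 hrs plating, compound added at 10 μM final for 48 hrs; luciferase light output read after in-situ lysis.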

**Q.** How did the activity at 10 µM turn out when CCS(=O)(=O)c1ccc2oc(-c3ccc(C)s3)nc2c1 [Example 418, 5-(ethylsulfonyl)-2-(5-methylthiophen-2-yl)benzo[d]oxazole] was run?
**A.** The activity at 10 µM was greater than 401%.

**Q.** How did the activity at 10 µM turn out when CC(C)C(=O)Nc1ccc2oc(-c3ccco3)nc2c1 [Example 419, N-(2-(furan-2-yl)benzo[d]oxazol-5-yl)isobutyramide] was run?
**A.** Its activity at 10 µM is greater than 401%.

**Q.** CC(=O)c1ccc2oc(-c3ccc(Cl)cc3)nc2c1 [Example 420, 1-(2-(4-chlorophenyl)benzo[d]oxazol-5-yl)ethanone] was tested. Which activity at 10 µM did it give?
**A.** Its activity at 10 µM is greater than 401%.

**Q.** With Nc1ccc2oc(-c3ccc(C4CCCCC4)cc3)nc2c1 [Example 421, 2-(4-cyclohexylphenyl)benzo[d]oxazol-5-amine] as the compound, how does the activity at 10 µM read?
**A.** The activity at 10 µM was greater than 401%.

**Q.** For CCS(=O)(=O)c1ccc2oc(-c3ccc4ccccc4n3)nc2c1 [Example 422, 5-(ethylsulfonyl)-2-(quinolin-2-yl)benzo[d]oxazole], which activity at 10 µM is on record?
**A.** Its activity at 10 µM is greater than 401%.

**Q.** Which activity at 10 µM does the source give for CCS(=O)(=O)c1ccc2oc(-c3cnc4ccccc4c3)nc2c1 [Example 423, 5-(ethylsulfonyl)-2-(quinolin-3-yl)benzo[d]oxazole] here?
**A.** Its activity at 10 µM is greater than 401%.

**Q.** How did the activity at 10 µM turn out when CCS(=O)(=O)c1ccc2oc(-c3ccc4cc(Br)ccc4c3)nc2c1 [Example 424, 2-(6-bromonaphthalen-2-yl)-5-(ethylsulfonyl)benzo[d]oxazole] was run?
**A.** The activity at 10 µM was less than 200%.

**Q.** How did the activity at 10 µM turn out when CCS(=O)(=O)c1ccc2oc(-c3ccc(C4CCCCC4)cc3)nc2c1 [Example 425, 2-(4-cyclohexylphenyl)-5-(ethylsulfonyl)benzo[d]oxazole] was run?
**A.** The activity at 10 µM was less than 200%.

**Q.** With CCS(=O)(=O)c1ccc2oc(-c3ccc(-c4ccccc4)cc3)nc2c1 [Example 426, 2-(biphenyl-4-yl)-5-(ethylsulfonyl)benzo[d]oxazole] as the compound, how does the activity at 10 µM read?
**A.** Its activity at 10 µM is less than 200%.

**Q.** With CCS(=O)(=O)c1ccc2oc(-c3cccc4ccccc34)nc2c1 [Example 427, 5-(ethylsulfonyl)-2-(naphthalen-1-yl)benzo[d]oxazole] as the compound, how does the activity at 10 µM read?
**A.** The activity at 10 µM was less than 200%.

**Q.** Which activity at 10 µM does the source give for Nc1ccc(-c2nc3cc(Cl)c(Cl)cc3o2)c(O)c1 [Example 428, 5-amino-2-(5,6-dichlorobenzo[d]oxazol-2-yl)phenol] here?
**A.** The activity at 10 µM was 301 to 400%.

**Q.** CCS(=O)(=O)c1ccc2oc(-c3cccs3)nc2c1 [Example 429, 5-(ethylsulfonyl)-2-(thiophen-2-yl)benzo[d]oxazole] was tested. Which activity at 10 µM did it give?
**A.** Its activity at 10 µM is 201 to 300%.

**Q.** CC(C)C(=O)Nc1ccc2oc(-c3ccc(C4CCCCC4)cc3)nc2c1 [Example 430, N-(2-(4-cyclohexylphenyl)benzo[d]oxazol-5-yl)isobutyramide] was tested. Which activity at 10 µM did it give?
**A.** The activity at 10 µM was less than 200%.

**Q.** How did the activity at 10 µM turn out when CCS(=O)(=O)c1ccc2oc(-c3ccc4cc(F)ccc4c3)nc2c1 [Example 431, 5-(ethylsulfonyl)-2-(6-fluoronaphthalen-2-yl)benzo[d]oxazole] was run?
**A.** Its activity at 10 µM is less than 200%.

**Q.** CCS(=O)(=O)c1ccc2oc(-c3ccc4sccc4c3)nc2c1 [Example 432, 2-(benzo[b]thiophen-5-yl)-5-(ethylsulfonyl)benzo[d]oxazole] was tested. Which activity at 10 µM did it give?
**A.** Its activity at 10 µM is greater than 401%.

**Q.** CC(=O)Nc1ccc(-c2nc3cc(C)c(C)cc3o2)c(O)c1 [Example 433, N-(4-(5,6-dimethylbenzo[d]oxazol-2-yl)-3-hydroxyphenyl)acetamide] was tested. Which activity at 10 µM did it give?
**A.** The activity at 10 µM was 201 to 300%.

**Q.** For CC(C)S(=O)(=O)c1ccc2oc(-c3ccc(Cl)c(Cl)c3)nc2c1 [Example 434, 2-(3,4-dichlorophenyl)-5-(isopropylsulfonyl)benzo[d]oxazole], which activity at 10 µM is on record?
**A.** Its activity at 10 µM is 301 to 400%.

**Q.** Which activity at 10 µM does the source give for CCS(=O)(=O)c1ccc2oc(-c3sccc3C)nc2c1 [Example 436, 5-(ethylsulfonyl)-2-(3-methylthiophen-2-yl)benzo[d]oxazole] here?
**A.** Its activity at 10 µM is 201 to 300%.

**Q.** Which activity at 10 µM does the source give for CCS(=O)(=O)c1ccc2oc(-c3ccc4ccccc4c3O)nc2c1 [Example 437, 2-(5-(ethylsulfonyl)benzo[d]oxazol-2-yl)naphthalen-1-ol] here?
**A.** Its activity at 10 µM is greater than 401%.

**Q.** CCS(=O)(=O)c1ccc2oc(-c3ccc4c(c3)OC(F)(F)O4)nc2c1 [Example 438, 2-(2,2-difluorobenzo[d][1,3]dioxol-5-yl)-5-(ethylsulfonyl)benzo[d]oxazole] was tested. Which activity at 10 µM did it give?
**A.** Its activity at 10 µM is less than 200%.

**Q.** Nc1ccc(-c2nc3cc(Cl)c(Cl)cc3o2)cc1 [Example 440, 4-(5,6-dichlorobenzo[d]oxazol-2-yl)aniline] was tested. Which activity at 10 µM did it give?
**A.** The activity at 10 µM was greater than 401%.

**Q.** How did the activity at 10 µM turn out when CCS(=O)(=O)c1ccc2oc(-c3ccc(C)o3)nc2c1 [Example 441, 5-(ethylsulfonyl)-2-(5-methylfuran-2-yl)benzo[d]oxazole] was run?
**A.** The activity at 10 µM was 301 to 400%.

**Q.** With CC(C)C(=O)Nc1ccc(-c2nc3c(ccc4ccccc43)o2)cc1 [Example 442, N-(4-(naphtho[1,2-d]oxazol-2-yl)phenyl)isobutyramide] as the compound, how does the activity at 10 µM read?
**A.** Its activity at 10 µM is 301 to 400%.

**Q.** How did the activity at 10 µM turn out when CCS(=O)(=O)c1ccc2oc(-c3cc(C)cs3)nc2c1 [Example 443, 5-(ethylsulfonyl)-2-(4-methylthiophen-2-yl)benzo[d]oxazole] was run?
**A.** Its activity at 10 µM is greater than 401%.

**Q.** For CCS(=O)(=O)c1ccc2oc(-c3ccc4c(c3)CCCC4)nc2c1 [Example 444, 5-(ethylsulfonyl)-2-(5,6,7,8-tetrahydronaphthalen-2-yl)benzo[d]oxazole], which activity at 10 µM is on record?
**A.** The activity at 10 µM was 301 to 400%.

**Q.** How did the activity at 10 µM turn out when CCS(=O)(=O)c1ccc2oc(-c3ccc4occc4c3)nc2c1 [Example 445, 2-(benzofuran-5-yl)-5-(ethylsulfonyl)benzo[d]oxazole] was run?
**A.** Its activity at 10 µM is greater than 401%.

**Q.** How did the activity at 10 µM turn out when CC(O)c1ccc2oc(-c3ccc(Cl)cc3)nc2c1 (centres unmarked) [Example 446, 2-(4′-chlorophenyl)-5-(1′-hydroxyethyl)-benzoxazole] was run?
**A.** The activity at 10 µM was greater than 401%.

**Q.** For CCS(=O)(=O)c1ccc2oc(-c3ccc(N)cc3O)nc2c1 [Example 447, 5-Amino-2-(5-(ethylsulfonyl)benzo[d]oxazol-2-yl)phenol], which activity at 10 µM is on record?
**A.** The activity at 10 µM was 201 to 300%.

**Q.** FC(F)(F)Oc1ccc2oc(-c3ccc4ccccc4c3)nc2c1 [Example 448, 2-(Naphthalen-2-yl)-5-(trifluoromethoxy)benzo[d]oxazole] was tested. Which activity at 10 µM did it give?
**A.** The activity at 10 µM was greater than 401%.

**Q.** How did the activity at 10 µM turn out when O=C(O)c1ccc2oc(-c3ccc4ccccc4c3)nc2c1 [Example 449, 2-(Naphthalen-2-yl)benzo[d]oxazole-5-carboxylic acid] was run?
**A.** The activity at 10 µM was greater than 401%.

**Q.** For c1ccc2cc(-c3nc4ccccc4o3)ccc2c1 [Example 450, 2-(Naphthalen-2-yl)benzo[d]oxazole], which activity at 10 µM is on record?
**A.** The activity at 10 µM was greater than 401%.

**Q.** With CC(C)(C)c1ccc2oc(-c3ccc4ccccc4c3)nc2c1 [Example 451, 5-tert-Butyl-2-(naphthalen-2-yl)benzo[d]oxazole] as the compound, how does the activity at 10 µM read?
**A.** Its activity at 10 µM is less than 200%.

**Q.** Which activity at 10 µM does the source give for Fc1cc2nc(-c3ccc4ccccc4c3)oc2cc1F [Example 452, 5,6-Difluoro-2-(naphthalen-2-yl)benzo[d]oxazole] here?
**A.** The activity at 10 µM was greater than 401%.

**Q.** How did the activity at 10 µM turn out when CC(C)C(=O)Nc1ccc(-c2nc3ccccc3o2)cc1 [Example 454, N-(4-(Benzo[d]oxazol-2-yl)phenyl)isobutyramide] was run?
**A.** Its activity at 10 µM is greater than 401%.

**Q.** For CC(O)c1ccc2oc(-c3ccc(Cl)c(Cl)c3)nc2c1 (centres unmarked) [Example 456, 2-(3′,4′-Dichlorophenyl)-5-(1′-hydroxyethyl)-benzoxazole], which activity at 10 µM is on record?
**A.** The activity at 10 µM was greater than 401%.

**Q.** Which activity at 10 µM does the source give for Cc1ccc2nc(-c3ccc(Cl)cc3)oc2c1 [Example 457, 2-(4-Chlorophenyl)-6-methylbenzo[d]oxazole] here?
**A.** Its activity at 10 µM is greater than 401%.

same assay, conditions: luciferase level relative to control; H2K/mdx/Utro A reporter cells; compound 10 μM final concentration

**Q.** CCN(CC)S(=O)(=O)c1ccc2oc(-c3ccc(Cl)cc3)nc2c1 [Example 439, 2-(4′-chlorophenyl)-5-(N,N-diethylsulfonamidyl)-benzoxazole] was tested. Which Activity did it give?
**A.** Its Activity is “+ (Up to 200% relative to control)”.

**Q.** Which Activity does the source give for CC(=O)c1ccc2oc(-c3ccc(Cl)c(Cl)c3)nc2c1 [Example 453, 1-(2′-(3″,4″-Dichlorophenyl)benzo[d]oxazol-5′-yl)ethanone] here?
**A.** Its Activity is “++++ (Above 401% relative to control)”.
